Laboratory results as given in EP0012139A1, “Therapeutic agent for stimulating the immune response in a mammal” (AMERICAN CYANAMID COMPANY, priority 1978, dated 1980).
Where a name gives a salt, the structure may show the parent alone.

Key:
Rauscher leukemia virus = test: Antibody response to sheep red blood cells in Rauscher leukemia virus-infected (leukemic) mice, hemagglutinin test; assay type: in vivo, BALB/C mice; conditions: for Hemagglutinin Titer* Test 1: reciprocal of serum dilution producing at least 50% agglutination, infected control 8, non-infected control 1024; for Hemagglutinin Titer* Test 6: infected control 32, non-infected control 2048; for Hemagglutinin Titer* Test 5: infected control 128, non-infected control 4096
[1] = system: transplantable C3H mammary tumor; test: Transplanted C3H mammary tumor growth in mice; conditions: for Ave. tumor diameter (mm.^2) (weeks after tumor implantation 3): week 3, untreated control 22; for Ave. tumor diameter (mm.^2) (weeks after tumor implantation 4): week 4, untreated control 73; for Ave. tumor diameter (mm.^2) (weeks after tumor implantation 5): week 5, untreated control 149; for Ave. tumor diameter (mm.^2) (weeks after tumor implantation 6): week 6, untreated control 218; for Ave. tumor diameter (mm.^2) (weeks after tumor implantation 7): week 7, untreated control 316
Description: C3H/HEB/J male mice were inoculated subcutaneously with five 2 mm. fragments of a transplantable C3H mammary tumor on day zero. Drugs were administered once every 7 days for 5 weeks, starting 14 days after tumor inoculation. When test drug (or the control, Corynebacterium parvum) was administered in combination with Cytoxan, it was given 4 days after the Cytoxan. […] Tumor diameters were measured by means of a Vernier caliper. Test substances were considered active if tumor growth, as indicated by tumor diameter, was inhibited by 50% or more.

[2] = 100 mg/kg orally days 6, 7, 8, reciprocal serum dilution, infected control 32, non-infected control 512
[3] = 100 mg./kg. orally + Cytoxan 60 mg./kg.
[4] = 200 mg./kg. orally + Cytoxan 60 mg./kg.
[5] = 300 mg./kg. orally + Cytoxan 60 mg./kg.
[6] = Cytoxan 60 mg./kg. intraperitoneally alone

Compound: CCCCN(CCCC)CCOc1ccc2cc3ccc(OCCN(CCCC)CCCC)cc3nc2c1 [3,6-Bis-(2-di-n-butylaminoethoxy)acri-dine trihydrochloride]
- Hemagglutinin Titer* Test 1 (Rauscher leukemia virus; 100 mg/kg orally days 6, 7, 8): 32

Compound: CCN(CC)CCOc1ccc2cc3ccc(OCCN(CC)CC)cc3nc2c1.Cl.Cl.Cl [3,6-Bis-(2-diethylaminoethoxy)acridine trihydrochloride]
- Hemagglutinin Titer* Test 6 (Rauscher leukemia virus; 37.5 mg/kg orally days 6, 7, 8, reciprocal serum dilution): 64
- Hemagglutinin Titer* Test 4 (Rauscher leukemia virus; 50 mg/kg orally days 6, 7, 8, reciprocal serum dilution, infected control 32, non-infected control 512): 128
- Hemagglutinin Titer* Test 5 (Rauscher leukemia virus; 50 mg/kg orally days 6, 7, 8, reciprocal serum dilution): 128
- Hemagglutinin Titer* Test 6 (Rauscher leukemia virus; 75 mg/kg orally days 6, 7, 8, reciprocal serum dilution): 128
- Hemagglutinin Titer* Test 3 (Rauscher leukemia virus; [2]): 128
- Hemagglutinin Titer* Test 4 (Rauscher leukemia virus; [2]): 256
- Hemagglutinin Titer* Test 5 (Rauscher leukemia virus; 100 mg/kg orally days 6, 7, 8, reciprocal serum dilution): 512
- Hemagglutinin Titer* Test 6 (Rauscher leukemia virus; 150 mg/kg orally days 6, 7, 8, reciprocal serum dilution): 128
- Hemagglutinin Titer* Test 5 (Rauscher leukemia virus; 200 mg/kg orally days 6, 7, 8, reciprocal serum dilution): 512
- Hemagglutinin Titer* Test 6 (Rauscher leukemia virus; 300 mg/kg orally days 6, 7, 8, reciprocal serum dilution): 128
- Hemagglutinin Titer* Test 6 (Rauscher leukemia virus; 600 mg/kg orally days 6, 7, 8, reciprocal serum dilution): 256
- Ave. tumor diameter (mm.^2) (weeks after tumor implantation 3) ([1]; 100 mg./kg. orally + Cytoxan 60 mg./kg. i.p. (given 4 days after Cytoxan)): 34 mm.^2
- Ave. tumor diameter (mm.^2) (weeks after tumor implantation 4) [1, 3]: 53 mm.^2
- Ave. tumor diameter (mm.^2) (weeks after tumor implantation 5) [1, 3]: 112 mm.^2
- Ave. tumor diameter (mm.^2) (weeks after tumor implantation 6) [1, 3]: 149 mm.^2
- Ave. tumor diameter (mm.^2) (weeks after tumor implantation 7) [1, 3]: 107 mm.^2
- Ave. tumor diameter (mm.^2) (weeks after tumor implantation 3) ([1]; 200 mg./kg. orally + Cytoxan 60 mg./kg. i.p. (given 4 days after Cytoxan)): 32 mm.^2
- Ave. tumor diameter (mm.^2) (weeks after tumor implantation 4) [1, 4]: 66 mm.^2
- Ave. tumor diameter (mm.^2) (weeks after tumor implantation 5) [1, 4]: 82 mm.^2
- Ave. tumor diameter (mm.^2) (weeks after tumor implantation 6) [1, 4]: 115 mm.^2
- Ave. tumor diameter (mm.^2) (weeks after tumor implantation 7) [1, 4]: 135 mm.^2
- Ave. tumor diameter (mm.^2) (weeks after tumor implantation 3) ([1]; 200 mg./kg. orally alone, once every 7 days): 22 mm.^2
- Ave. tumor diameter (mm.^2) (weeks after tumor implantation 4) ([1]; 200 mg./kg. orally alone): 44 mm.^2
- Ave. tumor diameter (mm.^2) (weeks after tumor implantation 5) ([1]; 200 mg./kg. orally alone): 109 mm.^2
- Ave. tumor diameter (mm.^2) (weeks after tumor implantation 6) ([1]; 200 mg./kg. orally alone): 148 mm.^2
- Ave. tumor diameter (mm.^2) (weeks after tumor implantation 7) ([1]; 200 mg./kg. orally alone): 223 mm.^2
- Ave. tumor diameter (mm.^2) (weeks after tumor implantation 3) ([1]; 300 mg./kg. orally + Cytoxan 60 mg./kg. i.p. (given 4 days after Cytoxan)): 37 mm.^2
- Ave. tumor diameter (mm.^2) (weeks after tumor implantation 4) [1, 5]: 71 mm.^2
- Ave. tumor diameter (mm.^2) (weeks after tumor implantation 5) [1, 5]: 99 mm.^2
- Ave. tumor diameter (mm.^2) (weeks after tumor implantation 6) [1, 5]: 128 mm.^2
- Ave. tumor diameter (mm.^2) (weeks after tumor implantation 7) [1, 5]: 160 mm.^2
- Ave. tumor diameter (mm.^2) (weeks after tumor implantation 3) ([1]; 300 mg./kg. orally alone, once every 7 days): 61 mm.^2
- Ave. tumor diameter (mm.^2) (weeks after tumor implantation 4) ([1]; 300 mg./kg. orally alone): 98 mm.^2
- Ave. tumor diameter (mm.^2) (weeks after tumor implantation 5) ([1]; 300 mg./kg. orally alone): 220 mm.^2
- Ave. tumor diameter (mm.^2) (weeks after tumor implantation 6) ([1]; 300 mg./kg. orally alone): 375 mm.^2
- inhibitory effect on mammary tumor growth compared to the untreated control ([1]; administered alone at 300, 200 and 100 mg./kg. every week for 5 weeks): only the 200 mg./kg. dose level produced an inhibitory effect
- tumor growth being inhibited ([1]; combined with Cytoxan 60 mg./kg., all dose levels (300, 200, 100 mg./kg.)): 50 - 65%
- tumor diameter of treated mice averaging ([1]; combined with Cytoxan 60 mg./kg., all dose levels, 316 mm.^2 for the untreated controls): 107 - 160 mm.^2

Compound: CN(C)C(C)(C)COc1ccc2cc3ccc(OCC(C)(C)N(C)C)cc3nc2c1 [3,6-Bis-(2-dimethylamino-2-methylpro-poxy)acridine trihydrochloride]
- Hemagglutinin Titer* Test 1 (Rauscher leukemia virus; 100 mg/kg orally days 6, 7, 8): 64

Compound: CN(C)CCOc1ccc2cc3ccc(OCCN(C)C)cc3nc2c1 [3,6-Bis-(2-dimethylaminoethoxy)acridine]
- Hemagglutinin Titer* Test 1 (Rauscher leukemia virus; 100 mg/kg orally days 6, 7, 8): 128
- Hemagglutinin Titer* Test 2 (Rauscher leukemia virus; [2]): 128

Compound: CN(C)CCCOc1ccc2cc3ccc(OCCCN(C)C)cc3nc2c1 [3,6-Bis-(3-dimethylaminopropoxy)acridine]
- Hemagglutinin Titer* Test 1 (Rauscher leukemia virus; 100 mg/kg orally days 6, 7, 8): 128
- Hemagglutinin Titer* Test 2 (Rauscher leukemia virus; [2]): 128

Compound: O=P1(N(CCCl)CCCl)NCCCO1 (stereo not drawn) [Cytoxan, reference compound]
- effect of Cytoxan dose on mammary tumor growth ([1]; 60 mg./kg. alone): ineffective dose
- Ave. tumor diameter (mm.^2) (weeks after tumor implantation 3) ([1]; Cytoxan 60 mg./kg. intraperitoneally alone, once every 7 days): 47 mm.^2
- No. Survivors No. Treated ([1]; Cytoxan 60 mg./kg. intraperitoneally alone, untreated control 7/8): 6/8
- Ave. tumor diameter (mm.^2) (weeks after tumor implantation 4) [1, 6]: 101 mm.^2
- Ave. tumor diameter (mm.^2) (weeks after tumor implantation 5) [1, 6]: 187 mm.^2
- Ave. tumor diameter (mm.^2) (weeks after tumor implantation 6) [1, 6]: 277 mm.^2
- Ave. tumor diameter (mm.^2) (weeks after tumor implantation 7) [1, 6]: 363 mm.^2
